Results reported in patent US9604931B2, “Nuclear receptor binding agents” (GTx, Inc., priority 2007, dated 2017).
“Also recorded” adds a separate entry of the source.

What was measured:
[1] = tested on: LNCaP prostate cancer cells; experiment: 3H thymidine incorporation, LNCaP cells; format: cell-based; settings: 6 days treatment
Protocol: (§1) The effects of treatment of an ER-β selective NRBA of this invention on cancer cell proliferation was examined using LNCaP prostate cancer cells and C-26 colon cancer cells. LNCaP or C-26 cells were plated in growth medium in 24 well and 6 well plates, respectively. LNCaP cells were treated for 6 days and C-26 cells were treated for 3 days at the indicated concentration. ^3H thymidine incorporation was measured at the end of treatment as an indicator of cell proliferation.

[2] = tested on: MHC, phospho-ERK, MCIP-1 in left ventricle; experiment: Angiotensin II model, markers of cardiac hypertrophy; format: in vivo, ovariectomized C57/BJ6 and ERβKO mice
Protocol: (§2) Thirty, ten week old female ovariectomized C57/BJ6 mice, were obtained from Harlan/Sprague Dawley and were housed in 12 hour on/off lighting and fed rodent chow devoid of soy or most plant products. Ovariectomized ERβKO mice were obtained from Ken Korach, NIEHS. The ERβ mice were originally created by Drs. Smithies, Gustafsson, and colleagues. All mice were identically housed and fed the same chow.
(§3) This pellet is well documented to produce physiological levels of E2 in the serum of mice.
RT-PCR was accomplished using the following primers. GAPDH expression served as control gene for all studies. MCIP1, 5′-[…] and […]; GAPDH, 5′-[…] and […]. • For relative protein detection, immunoblots were carried out on protein extracted from the left ventricles of mice from all conditions, following separation by SDS-PAGE and transfer to nitrocellulose. Cardiac myosin heavy chain (MHC) and MCIP antibodies (ABCAM, Cambridge, Mass. and Santa Cruz Biotechnology Inc., Santa Cruz, Calif.), and brain natriuretic peptide (BNP) antibodies (Penninsula Labs, Mountain View, Calif.) were used.

[3] = tested on: ovariectomy-induced (postmenopausal) obesity model; experiment: Ovariectomy-induced obesity model; format: in vivo, female C57BL6 mice; settings: OVX mice
Protocol: For the ovariectomy-induced obesity model, 6 week old female C57BL6 mice were sham operated or ovariectomized and the study was carried out for 9 weeks as indicated above.
Since it was shown that β-SERMs affected body composition in an animal model of high fat diet-induced obesity, they might also be effective in an animal model of postmenopausal obesity.

ARPE-19 cells = experiment: Fluorescent detection of intracellular ROS; format: cell-based, Human; settings: 150 μM tBH
Excerpt: Cells were allowed to adhere overnight. […] Removed and washed cells once with HBSS. […] Each drug concentration was done in triplicates.

C-26 colon cancer cells = experiment: 3H thymidine incorporation, C-26 cells; format: cell-based; settings: 3 days treatment
Protocol: as §1

[4] = tested on: LNCaP cells and human prostate stromal cells xenograft; experiment: LNCaP-stromal cell xenograft tumor growth; format: in vivo, nude mice; settings: 30 mg/kg/day for 21 days
Protocol: Prostate tumor xenografts were established with LNCaP cells and human prostate stromal cells in nude mice to establish the in vivo anti-proliferative effects of these ER-β NRBAs. A 4:1 ratio (based on cell number) of LNCaP:stroma cells was injected subcutaneously in nude mice and allowed to grow until they attained 100 mm^3 in volume, as measured by calipers. […] Tumor volumes were measured twice a week and percent tumor volume calculated, after 10, 14 and 21 days.

[5] = tested on: high fat diet induced obesity in already obese mice; experiment: High fat diet induced obesity, treatment study (study 3); format: in vivo, C57BL6 male mice
Protocol: For the treatment obesity study (where the animals were fed with high fat diet for six weeks prior to beginning drug treatment for 18 weeks), MRI scans were performed at weeks 0, 6, 12, 18 and 24.
As the first two studies were designed to prevent obesity (i.e. animals were fed with a high fat diet and treated simultaneously), a subsequent study was conducted to evaluate the ability of 12u to affect body composition in mice that were already fed with the high fat diet and were obese. Mice were divided into three groups with one group fed with normal diet (control) and the other two groups fed with the high fat diet for 6 weeks. […] All the animals were maintained in their respective diets during the entire course of the study.

ER-α = ER-α (Rattus norvegicus (Rat), UniProt P06211); experiment: Transient transactivation assay in HEK-293 cells, ER-α and ERE-LUC; format: cell-based
Protocol: Human estrogen receptors (ER-α and ER-β) were cloned from prostate cDNA into a pCR3.1 plasmid vector backbone. PGC-1 was cloned into mammalian two hybrid vector pACT. ER-β H475 was mutated to alanine using site-directed mutagenesis. Sequencing was performed to determine the absence of any non specific mutations. SHP promoter (−572 to +10) (26) was cloned into pGL3 basic LUC reporter vector and human FXR was cloned into pCR3.1. HEK-293 cells were plated at 100,000 cells per well of a 24 well plate in […] (DMEM)+5% charcoal-stripped fetal bovine serum (csFBS). The cells were transfected using Lipofectamine (Invitrogen, Carlsbad, Calif.) with 0.25 μg ERE-LUC, 0.02 μg CMV-LUC (renilla luciferase) and 12.5 ng of rat ER-α or 25 ng rat ER-β. […] Luciferase assays were performed 48 hrs after transfection.
To determine if the selectivity in ER binding also translated into ER-β-selective activity, transient transactivation assays were performed in HEK-293 cells transfected with plasmids encoding ER-α or ER-β and ERE-LUC. The cells were treated with varying concentrations of the ligands and their EC50 values were determined.

[6] = tested on: Ang II induced left ventricular hypertrophy; experiment: Angiotensin II model, cardiac hypertrophy; format: in vivo, ovariectomized C57/BJ6 and ERβKO mice; settings: 21 days
Protocol: as §2, §3
At inception and after 21 days, the mice were weighed. Blood pressure was measured 4 times during the 21-day period, using the CODA non-invasive blood pressure measuring system. At 21 days the hearts were stopped in diastole by CdCl2 administration. The hearts were removed and weighed and the ratio of heart per total body weight was determined. Next, the hearts were dissected and the left ventricles were weighed and the ratio of left ventricle per total body weight was determined. […] For comparison ERβ gene-deleted mice were subjected to the same conditions of Ang II±E2 or the 12u compound. For histology, the hearts were and sectioned, and stained with hematoxylin and eosin, or Masson stain (for collagen)

[7] = molecular target: ER-β ligand binding domain (LBD) (Homo sapiens (Human), UniProt Q92731); experiment: Ligand binding assay of 14m and 12u, ER-β (Example 22A)
Chain of ER-β ligand binding domain (LBD) (Q92731 264-498, species assumed): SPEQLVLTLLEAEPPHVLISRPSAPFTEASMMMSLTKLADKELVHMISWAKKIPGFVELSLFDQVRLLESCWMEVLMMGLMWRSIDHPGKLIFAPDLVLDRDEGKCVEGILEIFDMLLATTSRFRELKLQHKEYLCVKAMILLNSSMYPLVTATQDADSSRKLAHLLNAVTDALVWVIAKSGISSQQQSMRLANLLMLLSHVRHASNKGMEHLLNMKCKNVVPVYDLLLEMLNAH

SMILES	Growth of LNCaP prostate cancer cells [1]	Ang II induced elevations in phospho-ERK (p-ERK) ([2]; wildtype animals)	MCIP-1 levels ([2]; wildtype mice, irrespective of Ang II treatment)	Body weight gain [3]	Fat mass (MRI) [3]	Feed consumption [3]	Lean mass (MRI) [3]	Uterine weight [3]	WAT weight [3]	Prevention of ROS formation / oxidative stress (ARPE-19 cells)	Growth of C-26 colon cancer cells (C-26 colon cancer cells)	Xenograft tumor growth [4]	Body weight versus normal diet control mice ([5]; by week 16)	Body fat increase (MRI) ([5]; obese mice, 30 mg/kg/day s.c.)	Body weight gain after start of treatment ([5]; obese mice, 30 mg/kg/day s.c. from week 6)	Function on ER-α in transactivation (ER-α)	Ang II induced increase in heart size and total heart weight [6]	Ang II induced left ventricular hypertrophy (LVW/BW) ([6]; wildtype but not ERβKO mice)	Ki [7]
O=c1c2c(O)cc(O)cc2c(Br)cn1-c1ccc(O)cc1 [12u, 4-bromo-6,8-dihydroxy-2-(4-hydroxyphenyl)isoquinolin-1(2H)-one]	significantly inhibited	partially prevented	robustly elevated MCIP-1 levels	did not inhibit body weight gain	completely prevented the increase in fat mass	increased the feed consumption	significantly increased lean mass	without affecting uterine weight	completely inhibited the WAT	did not seem to have any effect	significantly inhibited	inhibited the growth of tumor significantly	not significantly different from normal diet control mice	reduced	prevented further gains in body weight	agonists	prevented the increased size	largely prevented; also recorded: prevented Ang II induced cardiac hypertrophy and increased heart size	
N#Cc1cn(-c2ccc(O)cc2)c(=O)c2c(O)cc(O)cc12 [14m, 6,8-dihydroxy-2-(4-hydroxyphenyl)-1-oxo-1,2-dihydroisoquinoline-4-carbonitrile]																agonists			5.35 nM
